Test results published in US8642559B2, “C-terminal domain truncation of mGluR1α by calpain and uses thereof” (priority 2006, dated 2014).
“Also recorded” adds a separate entry of the source.

What was measured:
Type in all cases: cell-based
cortical neurons = assay: Glutamate toxicity in transfected GFP-expressing cortical neurons (EthD-1 staining); conditions: 25 μM glutamate 1 hour, 12 hours later
Source text: In FIGS. 8a and b, cortical neurons were co-transfected with green fluorescent protein (GFP) and vector DNA, myc-mGluR1α or myc-mGluR1α936Δ, respectively. […] Twelve hours later, neurons were stained with EthD-1 to label dead cells. Arrowheads in FIG. 8a indicate EthD-1 positive GFP-expressing neurons. * p<0.05. FIGS. 8c and d are representative photos and bar graphs showing differential roles of endogenous mGluR1 in neuronal toxicity before and after NMDA-induced truncation. Cortical neurons were treated as indicated and were stained with EthD-1 (for dead cells) and calcein AM (for live cells) 24 hours later. * p<0.001.
The downstream signaling pathways of mGluR1α, including release of intracellular calcium and activation of P13K-Akt, are both important for excitotoxicity. Therefore, we postulated that NMDA-induced truncation would alter the role of mGluR1α in neuronal toxicity. To test this possibility, we first co-transfected neurons with GFP and a control vector, wild-type mGluR1α or truncated mGluR1α respectively. […] Twelve hours after treatment, neurons were stained with 0.5 μM EthD-1 for 10 minutes to label dead cells. The numbers of GFP-expressing neurons and EthD-1 positive GFP-expressing neurons on each 18×18 mm coverslip were counted to calculate the percentage of dead cells. […] In neurons co-transfected with control vector, 35% (n=9, on average, there were 405 GFP-expressing neurons counted on each coverslip) of GFP-expressing neurons were positive for EthD-1 staining and therefore had died. In neurons co-transfected with wild-type mGluR1α, only 15% of neurons (n=8, in average, there were 428 GFP-expressing neurons counted on each coverslip) were EthD-1 positive, an effect that was statistically different from that in neurons co-transfected with control vector (p<0.01, Student's t-test). […] Therefore it was difficult to determine the exact location of cell bodies and the live/dead ratios in those neurons.

[1] = tested on: vesicular glutamate transporter (vGluT1); assay: vGluT1 levels in cortical neurons after glutamate (immunoblot); conditions: 100 μM glutamate, 60 min
Source text: (§1) Total cell lysates were separated by SDS-PAGE and probed with an antibody against the carboxyl terminus (residue 1142-1160) of mGluR1α. […] Total cell lysates were probed with an anti-myc antibody. […] Total cell lysates were probed with antibodies against mGluR5, G1uR2/3 and VGluT1 respectively.
To test for the specificity of glutamate-mediated truncation of mGluR1α, immunoblots were also probed with an antibody against mGluR5, another member of group I mGluRs, which shares a high similarity with mGluR1α.

mGluR1α = assay: Glutamate/NMDA-induced C-terminal truncation of mGluR1α in cultured cortical neurons (immunoblot); conditions: 100 μM glutamate
Source text: as §1
Total cell lysate was collected immediately after treatment and subjected to SDS-PAGE and immunoblotting with an antibody against the carboxyl terminus (residues 1142-1160) of mGluR1α (FIG. 2A). […] Neurons were transfected with a calcium phosphate precipitation method modified for high transfection rate (Jian et al., Gene Ther 11:1301-1311, 2004).
Cortical neurons were treated with NMDA at the indicated concentrations for 1 h or treated with NMDA (10 μM) for the indicated times. Total cell lysates were separated by SDS-PAGE and probed with antibodies against mGluR1α1142-1160, Results were normalized over control values and are means±s.e.m. of 4 experiments.
To determine whether activation of mGluR1α itself was required for the truncation, two distinct mGluR1α antagonists were applied.
To further characterize NMDA-induced mGluR1α truncation, the concentration- and time-dependencies of the effects of NMDA were studied. Cortical neurons were first incubated with different concentrations of NMDA for a fixed period of time (1 hour) (FIG. 3F). […] In a following experiment, cortical neurons were incubated with 10 μM NMDA for different durations ranging from 1 to 60 min (FIG. 3G).
Cortical neurons were treated with NMDA (10 μM, 1 h). Total cell lysates were separated by SDS-PAGE and probed with antibodies against spectrin and mGluR1α1142-1160, respectively. Only the degradation bands of spectrin (spectrin DB, at ˜145 KD) are shown. […] In FIG. 4C, purified myc-mGluR1α was digested with μ-calpain at the indicated concentrations (U/ml) for 30 min. The digested material was processed for SDS-PAGE and subjected to silver staining or immunoblots with anti-myc or anti-mGluR1α1142-1160 antibodies. […] The 1st lane was the myc-mGluR1α immunoprecipitated from 293 cells; the 2nd and 3rd lanes were immunoprecipitated myc-mGluR1α digested with indicated concentration of calpain. […] FIG. 4F is the alignment of mGluR1 (902-941) and mGluR5 (889-927) surrounding the calpain cleavage site.
In this set of experiments, we determined which protease(s) mediated NMDA-induced truncation of mGluR1α. […] Cortical neurons were pretreated with a calpain inhibitor, the cell-permeable calpain-inhibitor III, or the caspase inhibitor cpm-VAD-CHO for 2 hours and then incubated in the absence or presence of 100 µM NMDA for 1 hour. […] To further confirm calpain activation by NMDA under our experimental conditions, we determined the levels of the calpain-specific spectrin degradation fragments.

mGluR5 = mGluR5 levels in cortical neurons after glutamate (immunoblot); conditions: 100 μM glutamate, 60 min
Source text: as §1

N[C@@H](CCC(=O)O)C(=O)O [glutamate]
EthD-1 positive GFP-expressing neurons (dead cells) (cortical neurons; co-transfected with control vector): 35% | EthD-1 positive GFP-expressing neurons (dead cells) (cortical neurons; co-transfected with mGluR1α936Δ): 59% | EthD-1 positive GFP-expressing neurons (dead cells) (cortical neurons; co-transfected with wild-type mGluR1α): 15% | changes to vGluT1 [1]: no significant changes | time at which mGluR1α truncation was apparent after glutamate treatment (mGluR1α): 1 min | levels of native mGluR1α (mGluR1α; 60 min (1 hour)): almost completely disappeared; also recorded: significant reduction | levels of mGluR5 (mGluR5): not significantly altered
